Drawing on patent publication US12077537B2 (Gilead Sciences, Inc., priority 2020, dated 2024), this text covers EC50 for 20 compounds.

As usually defined, the EC50 is the concentration giving half of the maximal effect. A lower EC50 goes with an effect from little substance.

Structures are written as SMILES.

The test system of the experiment is HIV-IIIb. As to the kind of experiment: Antiviral assay in MT4 cells. In kind it is cell-based. To be noted: Human immunodeficiency virus 1, MT4, 120 h; MT-4 cells mixed with HIV-IIIb at m.o.i. 0.003; 5 days at 37° C.; CellTiter-Glo luminescence; 50% decrease in signal, a measure of HIV-1 replication. Here is the method:
Antiviral Assay in MT4 Cells For the antiviral assay, 40 μL of a concentration required to achieve a final effective 1× test concentration of 3-fold serially diluted compound in culture medium with 10% FBS was added to each well of a 384-well plate (10 concentrations) in quadruplicate. MT-4 cells were next mixed with HIV-IIIb at an m.o.i of 0.003 for 1 hour, after which time 35 μL of virus/cell mixture (2000 cells) was immediately added to each well containing 40 μL of diluted compound. The plates were then incubated at 37° C. for 5 days. After 5 days of incubation, 25 μl of 2× concentrated CellTiter-Glom Reagent (catalog #G7571, Promega Biosciences, Inc., Madison, WI) was added to each well containing MT-4 cells. Cell lysis was carried out by incubating at room temperature for 10 min and then chemiluminescence was read.

In the case of `Cc1[nH]c2ccccc2c1CC(=O)N[C@@H](Cc1ccccc1)c1nc2ccccc2n1-c1ccccc1` [Compound 2, (S)-2-(2-methyl-1H-indol-3-yl)-N-(2-phenyl-1-(1-phenyl-1H-benzo[d]imidazol-2-yl)ethyl)acetamide], the half-maximal effective concentration (EC50) was 29700 nM.

Turning to `NC(=O)c1cc(-c2cc3sc(N4CCOCC4)nc3nc2[C@H](Cc2cc(F)cc(F)c2)NC(=O)Cn2nc(C(F)F)c3c2C(F)(F)CCC3(F)F)ccc1F` [Compound 3, (S)-5-(5-(1-(2-(3-(difluoromethyl)-4,4,7,7-tetrafluoro-4,5,6,7-tetrahydro-1H-indazol-1-yl)acetamido)-2-(3,5-difluorophenyl)ethyl)-2-morpholinothiazolo[4,5-b]pyridin-6-yl)-2-fluorobenzamide], the EC50 came out at 160 nM.

Take `COCCOCCNc1nc2nc([C@H](Cc3cc(F)cc(F)c3)NC(=O)Cn3nc(C(F)F)c4c3C(F)(F)CCC4(F)F)c(-c3ccc(F)c(C(N)=O)c3)cc2s1` [Compound 4, (S)-5-(5-(1-(2-(3-(difluoromethyl)-4,4,7,7-tetrafluoro-4,5,6,7-tetrahydro-1H-indazol-1-yl)acetamido)-2-(3,5-difluorophenyl)ethyl)-2-((2-(2-methoxyethoxy)ethyl)amino)thiazolo[4,5-b]pyridin-6-yl)-2-fluorobenzamide]: the EC50 worked out at 154 nM.

The compound `NC(=O)c1cc(-c2cc3sc(N4CCN(C5COC5)CC4)nc3nc2[C@H](Cc2cc(F)cc(F)c2)NC(=O)Cn2nc(C(F)F)c3c2C(F)(F)CCC3(F)F)ccc1F` [Compound 5] showed an EC50 of 76.9 nM.

In the case of `CC(C)(O)CNc1nc2nc([C@H](Cc3cc(F)cc(F)c3)NC(=O)Cn3nc(C(F)F)c4c3C(F)(F)CCC4(F)F)c(-c3ccc(F)c(C(N)=O)c3)cc2s1` [Compound 6, (S)-5-(5-(1-(2-(3-(difluoromethyl)-4,4,7,7-tetrafluoro-4,5,6,7-tetrahydro-1H-indazol-1-yl)acetamido)-2-(3,5-difluorophenyl)ethyl)-2-((2-hydroxy-2-methylpropyl)amino)thiazolo[4,5-b]pyridin-6-yl)-2-fluorobenzamide], the response was half-maximal at 98.6 nM (EC50).

The compound `CN1CCN(c2nc3nc([C@H](Cc4cc(F)cc(F)c4)NC(=O)Cn4nc(C(F)F)c5c4C(F)(F)CCC5(F)F)c(-c4ccc(F)c(C(N)=O)c4)cc3s2)CC1` [Compound 7, (S)-5-(5-(1-(2-(3-(difluoromethyl)-4,4,7,7-tetrafluoro-4,5,6,7-tetrahydro-1H-indazol-1-yl)acetamido)-2-(3,5-difluorophenyl)ethyl)-2-(4-methylpiperazin-1-yl)thiazolo[4,5-b]pyridin-6-yl)-2-fluorobenzamide] returned an EC50 of 127 nM.

With `NC(=O)c1cc(-c2cc3sc(NCCN4CCOCC4)nc3nc2[C@H](Cc2cc(F)cc(F)c2)NC(=O)Cn2nc(C(F)F)c3c2C(F)(F)CCC3(F)F)ccc1F` [Compound 8, (S)-5-(5-(1-(2-(3-(difluoromethyl)-4,4,7,7-tetrafluoro-4,5,6,7-tetrahydro-1H-indazol-1-yl)acetamido)-2-(3,5-difluorophenyl)ethyl)-2-((2-morpholinoethyl)amino)thiazolo[4,5-b]pyridin-6-yl)-2-fluorobenzamide], the EC50 worked out at 162 nM.

In the case of `NC(=O)c1cc(-c2cc3sc(NC4CCOC4)nc3nc2[C@H](Cc2cc(F)cc(F)c2)NC(=O)Cn2nc(C(F)F)c3c2C(F)(F)CCC3(F)F)ccc1F` (stereo partly drawn) [Compound 9, 5-(5-((S)-1-(2-(3-(difluoromethyl)-4,4,7,7-tetrafluoro-4,5,6,7-tetrahydro-1H-indazol-1-yl)acetamido)-2-(3,5-difluorophenyl)ethyl)-2-((tetrahydrofuran-3-yl)amino)thiazolo[4,5-b]pyridin-6-yl)-2-fluorobenzamide], a half-maximal effect (EC50) was put at 266 nM. This EC50 is about 1.6-fold higher than that of the compound before.

As for `NC(=O)c1cc(-c2cc3sc(NC4COC4)nc3nc2[C@H](Cc2cc(F)cc(F)c2)NC(=O)Cn2nc(C(F)F)c3c2C(F)(F)CCC3(F)F)ccc1F` [Compound 10, (S)-5-(5-(1-(2-(3-(difluoromethyl)-4,4,7,7-tetrafluoro-4,5,6,7-tetrahydro-1H-indazol-1-yl)acetamido)-2-(3,5-difluorophenyl)ethyl)-2-(oxetan-3-ylamino)thiazolo[4,5-b]pyridin-6-yl)-2-fluorobenzamide], the concentration giving a half-maximal response (EC50) is 384 nM.

Turning to `CC1(O)CN(c2nc3nc([C@H](Cc4cc(F)cc(F)c4)NC(=O)Cn4nc(C(F)F)c5c4C(F)(F)CCC5(F)F)c(-c4ccc(F)c(C(N)=O)c4)cc3s2)C1` [Compound 11, (S)-5-(5-(1-(2-(3-(difluoromethyl)-4,4,7,7-tetrafluoro-4,5,6,7-tetrahydro-1H-indazol-1-yl)acetamido)-2-(3,5-difluorophenyl)ethyl)-2-(3-hydroxy-3-methylazetidin-1-yl)thiazolo[4,5-b]pyridin-6-yl)-2-fluorobenzamide], it took 162 nM to reach a half-maximal effect (EC50).

`COCCNc1nc2nc([C@H](Cc3cc(F)cc(F)c3)NC(=O)Cn3nc(C(F)F)c4c3C(F)(F)CCC4(F)F)c(-c3ccc(F)c(C(N)=O)c3)cc2s1` [Compound 12, (S)-5-(5-(1-(2-(3-(difluoromethyl)-4,4,7,7-tetrafluoro-4,5,6,7-tetrahydro-1H-indazol-1-yl)acetamido)-2-(3,5-difluorophenyl)ethyl)-2-((2-methoxyethyl)amino)thiazolo[4,5-b]pyridin-6-yl)-2-fluorobenzamide] displayed an EC50 of 158 nM.

For the compound `NC(=O)c1cc(-c2cc3sc(N4CC5(COC5)C4)nc3nc2[C@H](Cc2cc(F)cc(F)c2)NC(=O)Cn2nc(C(F)F)c3c2C(F)(F)CCC3(F)F)ccc1F` [Compound 13, (S)-5-(5-(1-(2-(3-(difluoromethyl)-4,4,7,7-tetrafluoro-4,5,6,7-tetrahydro-TH-indazol-1-yl)acetamido)-2-(3,5-difluorophenyl)ethyl)-2-(2-oxa-6-azaspiro[3.3]heptan-6-yl)thiazolo[4,5-b]pyridin-6-yl)-2-fluorobenzamide], the midpoint of the response, the EC50, lay at 126 nM.

For the compound `NC(=O)c1cc(-c2cc3sc(O)nc3nc2[C@H](Cc2cc(F)cc(F)c2)NC(=O)Cn2nc(C(F)F)c3c2C(F)(F)CCC3(F)F)ccc1F` [Compound 15-1, (S)-5-(5-(1-(2-(3-(difluoromethyl)-4,4,7,7-tetrafluoro-4,5,6,7-tetrahydro-1H-indazol-1-yl)acetamido)-2-(3,5-difluorophenyl)ethyl)-2-hydroxythiazolo[4,5-b]pyridin-6-yl)-2-fluorobenzamide], the EC50 worked out at 318 nM.

`NC(=O)c1cc(-c2cc3scnc3nc2[C@H](Cc2cc(F)cc(F)c2)NC(=O)Cn2nc(C(F)F)c3c2C(F)(F)CCC3(F)F)ccc1F` [Compound 15-2, (S)-5-(5-(1-(2-(3-(difluoromethyl)-4,4,7,7-tetrafluoro-4,5,6,7-tetrahydro-1H-indazol-1-yl)acetamido)-2-(3,5-difluorophenyl)ethyl)thiazolo[4,5-b]pyridin-6-yl)-2-fluorobenzamide]: the EC50 came to 326 nM. This EC50 and that of the compound before are within 1.5-fold of each other.

As for `N#Cc1cc(-c2cc3scnc3nc2[C@H](Cc2cc(F)cc(F)c2)NC(=O)Cn2nc(C(F)F)c3c2C(F)(F)CCC3(F)F)ccc1F` [Compound 15E, (S)—N-(1-(6-(3-cyano-4-fluorophenyl)thiazolo[4,5-b]pyridin-5-yl)-2-(3,5-difluorophenyl)ethyl)-2-(3-(difluoromethyl)-4,4,7,7-tetrafluoro-4,5,6,7-tetrahydro-1H-indazol-1-yl)acetamide], the midpoint of the response, the EC50, lay at 2640 nM.

Consider `O=C(Cn1nc(C(F)F)c2c1C(F)(F)CCC2(F)F)N[C@@H](Cc1cc(F)cc(F)c1)c1nc2ncsc2cc1-c1ccc(F)cc1` [Compound 16, (S)-2-(3-(difluoromethyl)-4,4,7,7-tetrafluoro-4,5,6,7-tetrahydro-1H-indazol-1-yl)-N-(2-(3,5-difluorophenyl)-1-(6-(4-fluorophenyl)thiazolo[4,5-b]pyridin-5-yl)ethyl)acetamide], for which a half-maximal effect (EC50) was put at 1020 nM.

`O=C(Cn1nc(C(F)F)c2c1C(F)(F)CCC2(F)F)N[C@H](Cc1cc(F)cc(F)c1)c1nc2ncsc2cc1-c1ccc(F)cc1` [Compound 17, (R)-2-(3-(difluoromethyl)-4,4,7,7-tetrafluoro-4,5,6,7-tetrahydro-1H-indazol-1-yl)-N-(2-(3,5-difluorophenyl)-1-(6-(4-fluorophenyl)thiazolo[4,5-b]pyridin-5-yl)ethyl)acetamide] displayed a concentration for a half-maximal effect (EC50) of 7990 nM. This EC50 lies about 7.8-fold higher than the previous one.

Compound `NC(=O)c1cc(-c2cc3sc(N4CCOCC4)nc3nc2C(Cc2cc(F)cc(F)c2)NC(=O)Cn2nc(C(F)F)c3c2C(F)(F)CCC3(F)F)ccc1F` (centres unmarked) [Compound 18, 5-(5-(1-(2-(3-(difluoromethyl)-4,4,7,7-tetrafluoro-4,5,6,7-tetrahydro-1H-indazol-1-yl)acetamido)-2-(3,5-difluorophenyl)ethyl)-2-morpholinothiazolo[4,5-b]pyridin-6-yl)-2-fluorobenzamide] returned an EC50 of 254 nM.

For `Cc1cc(Nc2nc3nc(C(Cc4cc(F)cc(F)c4)NC(=O)Cn4nc(C(F)F)c5c4C(F)(F)CCC5(F)F)c(-c4ccc(F)c(C(N)=O)c4)cc3s2)[nH]n1` (centres unmarked) [Compound 19, 5-(5-(1-(2-(3-(difluoromethyl)-4,4,7,7-tetrafluoro-4,5,6,7-tetrahydro-1H-indazol-1-yl)acetamido)-2-(3,5-difluorophenyl)ethyl)-2-((3-methyl-1H-pyrazol-5-yl)amino)thiazolo[4,5-b]pyridin-6-yl)-2-fluorobenzamide], the midpoint of the response, the EC50, lay at 1050 nM.

`CN(C)CCNc1nc2nc(C(Cc3cc(F)cc(F)c3)NC(=O)Cn3nc(C(F)F)c4c3C(F)(F)CCC4(F)F)c(-c3ccc(F)c(C(N)=O)c3)cc2s1` (centres unmarked) [Compound 20, 5-(5-(1-(2-(3-(difluoromethyl)-4,4,7,7-tetrafluoro-4,5,6,7-tetrahydro-TH-indazol-1-yl)acetamido)-2-(3,5-difluorophenyl)ethyl)-2-((2-(dimethylamino)ethyl)amino)thiazolo[4,5-b]pyridin-6-yl)-2-fluorobenzamide] showed an EC50 of 303 nM.
